Values of other authors as cited in article PMC8621674, “Formulation and In Vivo Evaluation of a Solid Self-Emulsifying Drug Delivery System Using Oily Liquid Tocotrienols as Model Active Substance” (Pharmaceutics, 2021).

Details: no reference given

Row | HLB value | Substance
1 | 12 | caprylocaproyl macrogol-8 glycerides [Labrasol®]
2 | 29 | poloxamer 188
